The target in test [1] is T1, MacroD1 (Homo sapiens, UniProt Q9BQ69). The test can be described thus: biochemical. In kind it is binding.
The target of test [2] is T2, VEEV Macro (Venezuelan equine encephalitis virus, UniProt P27282). Briefly: biochemical. In kind it is binding.
Test [3] has as its target T1, MacroD1. Particulars: cited from earlier work.
A further test addresses PARP9 Macro2 (Homo sapiens, UniProt Q8IXQ6). Briefly: biochemical. In kind it is binding.
Test [4] has as its target T1, MacroD1. In kind it is biochemical.
The target in the next test is SARS Macro1 (Severe acute respiratory syndrome coronavirus 2, UniProt P0DTD1). In kind it is biochemical, SARS-CoV-2.
Test [5] addresses T3, CHIKV Macro (Chikungunya virus, UniProt Q8JUX6). The test can be described thus: biochemical. In kind it is binding.
In test [6] the target is T4, human MacroD2 (Homo sapiens, UniProt A1Z1Q3). Briefly: biochemical. In kind it is binding.
T4 sequence (A1Z1Q3 59-240 limits assumed): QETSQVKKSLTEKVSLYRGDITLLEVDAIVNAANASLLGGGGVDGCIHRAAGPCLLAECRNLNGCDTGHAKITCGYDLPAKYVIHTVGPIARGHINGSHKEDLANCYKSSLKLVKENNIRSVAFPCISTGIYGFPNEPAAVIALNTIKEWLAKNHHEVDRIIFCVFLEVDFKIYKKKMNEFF
For test [7], the target named is T5, SARS-CoV-2 Macro1 (Severe acute respiratory syndrome coronavirus 2, UniProt P0DTD1). Briefly: biochemical. The class given is binding.
In test [8] the target is T5, SARS-CoV-2 Macro1. In kind it is binding.
Test [9] deals with T3, CHIKV Macro. The class given is binding.
In test [10] the target is T4, human MacroD2. The class given is binding.
For test [11], the target named is T2, VEEV Macro. The class given is binding.
The target in test [12] is T1, MacroD1. The class given is binding.

Read-outs that look alike come from different tables or passages of the source.

T1 sequence (Q9BQ69 141-322 limits assumed): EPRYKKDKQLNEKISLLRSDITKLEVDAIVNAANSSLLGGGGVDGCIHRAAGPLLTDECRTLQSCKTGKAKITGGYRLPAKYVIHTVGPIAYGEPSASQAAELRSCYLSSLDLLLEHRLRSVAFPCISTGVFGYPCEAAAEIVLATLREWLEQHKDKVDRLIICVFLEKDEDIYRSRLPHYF
T2 sequence (P27282 1330-1489 limits assumed): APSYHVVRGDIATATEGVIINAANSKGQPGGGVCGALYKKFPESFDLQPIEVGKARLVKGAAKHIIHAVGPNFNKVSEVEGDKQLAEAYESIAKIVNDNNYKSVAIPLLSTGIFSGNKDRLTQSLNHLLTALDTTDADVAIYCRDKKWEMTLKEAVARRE
T3 sequence (Q8JUX6 1334-1493 limits assumed): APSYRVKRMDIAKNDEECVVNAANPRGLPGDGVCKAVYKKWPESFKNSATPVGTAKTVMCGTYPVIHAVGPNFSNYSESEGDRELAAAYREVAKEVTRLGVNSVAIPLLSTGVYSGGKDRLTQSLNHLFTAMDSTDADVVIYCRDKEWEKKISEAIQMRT

With `Nc1ncnc2c1ncn2[C@@H]1O[C@H](COP(=O)(O)OP(=O)(O)OC[C@H]2OC(O)[C@H](O)[C@@H]2O)[C@@H](O)[C@H]1O` (stereo partly drawn) [ADPr, adenine diphosphate ribose], the IC50 on MacroD1 [1] (read-out: IC50 MacroD1) worked out at 1420 ± 220 nM; on VEEV Macro [2] (read-out: IC50 VEEV Macro) it was 18.3 ± 2.8 µM. The Kd on MacroD1 [3] is 720 nM.
In the case of `Nc1ncnc2c1ncn2[C@@H]1O[C@H](COP(=O)(O)OP(=O)(O)OC[C@H]2O[C@H](Oc3ccc([N+](=O)[O-])cc3)[C@H](O)[C@@H]2O)[C@@H](O)[C@H]1O` [pNP-ADPr, ADP-ribosylated p-nitrophenol], the concentration for half-maximal inhibition (IC50) came out at 4.5 ± 0.4 µM against PARP9 Macro2; 960 ± 70 nM at MacroD1 [1]; 22.8 ± 5.7 µM on CHIKV Macro [5]; 10.7 ± 0.9 µM against VEEV Macro [2]; 150 ± 10 nM against human MacroD2 [6]; 370 nM against SARS-CoV-2 Macro1 [7]. Further, the “MAR hydrolysis activity of MacroD1 in the presence of inhibitor” value on MacroD1 [4] is listed as “lowered MAR hydrolysis activity”. In addition, the “MAR hydrolysis activity of SARS Macro1 in the presence of inhibitor” value on SARS Macro1 was “lowered MAR hydrolysis activity”. At SARS-CoV-2 Macro1 [7], the “IC50 Fold Decrease Relative to ADPr: SARS Macro1” value was found to be 40 fold.
As for `CN(C)c1ccc2c(c1)Oc1cc(N(C)C)ccc1C21OC(=O)c2cc(C(=O)NCCCCCCNC(=O)CCc3cn([C@H]4O[C@H](COP(=O)(O)OP(=O)(O)OC[C@H]5O[C@@H](n6cnc7c(N)ncnc76)[C@H](O)[C@@H]5O)[C@@H](O)[C@H]4O)nn3)ccc21` [TAMRA-ADPr], the mP shift entry on SARS-CoV-2 Macro1 [8] is given as “over 110 mP”; on CHIKV Macro [9] it was roughly 70 mP; at human MacroD2 [10] it was “more than 100 mP”; at VEEV Macro [11] it was roughly 70 mP; on MacroD1 [12] it was “more than 100 mP”.
For the molecule `Nc1ncnc2c1ncn2[C@@H]1O[C@H](COP(=O)(O)OP(=O)(O)OC[C@H]2O[C@H](Oc3ccc4c(C(F)(F)F)cc(=O)oc4c3)[C@H](O)[C@@H]2O)[C@@H](O)[C@H]1O` [TFMU-ADPr, ADP-ribosylated trifluoromethyl umbelliferone], the IC50 at PARP9 Macro2 is 10.9 ± 1.1 µM; against MacroD1 [1] it was 290 ± 20 nM; against CHIKV Macro [5], 37.6 ± 12.3 µM; against VEEV Macro [2], 4.24 ± 0.36 µM; against human MacroD2 [6], 90 ± 20 nM; at SARS-CoV-2 Macro1 [7], 590 nM. Further, the “MAR hydrolysis activity of MacroD1 in the presence of inhibitor” value on MacroD1 [4] is “lowered MAR hydrolysis activity”. Moreover, the “MAR hydrolysis activity of SARS Macro1 in the presence of inhibitor” value on SARS Macro1 was “lowered MAR hydrolysis activity”. On SARS-CoV-2 Macro1 [7], the “IC50 Fold Decrease Relative to ADPr: SARS Macro1” value came out at 25 fold.
In the case of `N#C[C@@]1(c2ccc3c(N)ncnn23)O[C@H](CO)[C@@H](O)[C@H]1O` [GS-441524], the IC50 is greater than 100 µM against PARP9 Macro2; greater than 100000 nM at MacroD1 [1]; greater than 100 µM on CHIKV Macro [5]; greater than 100 µM at VEEV Macro [2]; greater than 100000 nM against human MacroD2 [6].
`Nc1ncnc2c1ncn2[C@@H]1O[C@H](COP(=O)(O)O)[C@@H](O)[C@H]1O[C@@H]1O[C@H](COP(=O)(O)O)[C@@H](O)[C@H]1O` [iso-ADPr]: the “Competition with the tracer in macrodomain binding” value on PARP9 Macro2, at MacroD1 [1], at CHIKV Macro [5], at VEEV Macro [2], at human MacroD2 [6] and on SARS-CoV-2 Macro1 [7] was “did not compete” throughout.
Take `[N-]=[N+]=NC1OC(COP(=O)(O)OP(=O)(O)OCC2OC(n3cnc4c(N)ncnc43)C(O)C2O)C(O)C1O` (stereo not drawn) [ADPr-N3]: at SARS-CoV-2 Macro1 [7], the midpoint of inhibition, the IC50, lay at 7230 ± 940 nM and the “IC50 Fold Decrease Relative to ADPr: SARS Macro1” value is on record as roughly 2 fold.

Source of the values: article PMC10178785 (ACS Chemical Biology, 2023).
